Read-outs that look alike come from different tables or passages of the source.
Key:
HOP-62 = assay: NCI-60 cytotoxicity, HOP-62; conditions: Homo sapiens, HOP-62, read-out: Cytotoxicity (GI50) Lung HOP-62
UACC-62 = assay: NCI-60 cytotoxicity, UACC-62; conditions: Homo sapiens, UACC-62, read-out: Cytotoxicity (GI50) Melanoma UACC-62
SN12C = assay: NCI-60 cytotoxicity, SN12C; conditions: Homo sapiens, read-out: Cytotoxicity (GI50) Renal SN12C
Top1 = biological target: T1, Top1 (Homo sapiens, UniProt P11387); assay: Top1-mediated DNA cleavage assay; type: biochemical; set-up: Top1 inhibitory activity level / Top1 inhibitory activity score: key to the marks not given beside the values; conditions: for Enzyme Inhibitory Activity Top1: DNA cleavage relative to 1 μM MJ-III-65 (19) and 1 μM camptothecin (18); for Top1 inhibitory activity level: series 1
T1 sequence (P11387 1-765): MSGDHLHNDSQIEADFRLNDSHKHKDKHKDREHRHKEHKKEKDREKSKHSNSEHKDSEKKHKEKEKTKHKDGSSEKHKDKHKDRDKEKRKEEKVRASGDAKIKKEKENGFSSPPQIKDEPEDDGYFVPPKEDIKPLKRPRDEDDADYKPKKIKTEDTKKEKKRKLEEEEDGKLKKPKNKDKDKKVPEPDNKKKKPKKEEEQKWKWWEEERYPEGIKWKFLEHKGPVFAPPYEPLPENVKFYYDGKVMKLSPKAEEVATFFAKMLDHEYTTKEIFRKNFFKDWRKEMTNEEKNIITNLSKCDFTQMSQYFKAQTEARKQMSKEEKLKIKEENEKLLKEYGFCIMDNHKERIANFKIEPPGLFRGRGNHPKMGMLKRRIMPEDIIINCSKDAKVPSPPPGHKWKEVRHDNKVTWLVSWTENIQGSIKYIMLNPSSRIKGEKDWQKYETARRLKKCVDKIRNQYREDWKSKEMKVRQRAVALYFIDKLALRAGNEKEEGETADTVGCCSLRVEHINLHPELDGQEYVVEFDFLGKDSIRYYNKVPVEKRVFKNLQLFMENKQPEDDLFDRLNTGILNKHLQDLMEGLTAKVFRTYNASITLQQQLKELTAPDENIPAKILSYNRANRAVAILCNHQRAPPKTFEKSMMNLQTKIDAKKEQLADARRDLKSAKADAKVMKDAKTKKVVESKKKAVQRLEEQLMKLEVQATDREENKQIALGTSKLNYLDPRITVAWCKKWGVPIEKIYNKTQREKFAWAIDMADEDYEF

[1] = system: NCI-60 panel of human cancer cell lines; assay: NCI-60 screen, mean graph midpoint over all cell lines; conditions: for GI50: Homo sapiens
OVCAR-3 = assay: NCI-60 cytotoxicity, OVCAR-3; conditions: Homo sapiens, OVCAR-3, read-out: Cytotoxicity (GI50) Ovarian Ovcar-3
MCF-7 = assay: NCI-60 cytotoxicity, MCF-7; conditions: Homo sapiens, MCF7, read-out: Cytotoxicity (GI50) Breast MCF-7
Tdp1 = Tdp1 (Homo sapiens, UniProt Q9NUW8); assay: Recombinant Tdp1 assay; type: biochemical
Chain of Tdp1 (Q9NUW8 whole entry): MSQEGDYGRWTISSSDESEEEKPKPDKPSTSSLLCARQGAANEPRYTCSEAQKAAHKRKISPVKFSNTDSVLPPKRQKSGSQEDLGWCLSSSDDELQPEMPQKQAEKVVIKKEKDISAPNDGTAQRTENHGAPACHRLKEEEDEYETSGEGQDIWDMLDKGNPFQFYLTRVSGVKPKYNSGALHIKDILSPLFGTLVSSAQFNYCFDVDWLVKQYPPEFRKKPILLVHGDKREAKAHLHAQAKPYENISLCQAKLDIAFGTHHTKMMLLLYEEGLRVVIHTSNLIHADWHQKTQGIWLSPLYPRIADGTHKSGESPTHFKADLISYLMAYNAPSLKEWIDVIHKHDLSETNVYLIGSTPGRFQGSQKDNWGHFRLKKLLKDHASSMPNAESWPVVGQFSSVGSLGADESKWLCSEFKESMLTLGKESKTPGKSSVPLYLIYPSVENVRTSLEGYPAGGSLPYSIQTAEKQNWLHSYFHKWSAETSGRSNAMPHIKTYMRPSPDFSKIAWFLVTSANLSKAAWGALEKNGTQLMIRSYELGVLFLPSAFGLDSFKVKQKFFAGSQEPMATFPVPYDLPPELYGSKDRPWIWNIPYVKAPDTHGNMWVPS

recombinant human TDP2 = biological target: T2, recombinant human TDP2 (Homo sapiens, UniProt O95551); assay: Recombinant Tdp2 assay; type: biochemical
T2 sequence (O95551 1-362): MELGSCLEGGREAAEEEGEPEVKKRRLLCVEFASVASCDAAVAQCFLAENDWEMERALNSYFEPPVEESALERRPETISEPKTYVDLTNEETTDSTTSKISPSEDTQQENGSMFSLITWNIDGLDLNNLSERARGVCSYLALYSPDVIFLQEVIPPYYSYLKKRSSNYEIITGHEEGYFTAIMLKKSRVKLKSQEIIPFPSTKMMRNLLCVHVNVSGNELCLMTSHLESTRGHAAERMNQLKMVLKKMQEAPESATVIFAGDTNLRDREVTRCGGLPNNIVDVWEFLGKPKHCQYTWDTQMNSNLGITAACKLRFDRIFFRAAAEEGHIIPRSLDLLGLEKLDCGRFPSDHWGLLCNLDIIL

SF-539 = assay: NCI-60 cytotoxicity, SF-539; conditions: Homo sapiens, SF-539, read-out: Cytotoxicity (GI50) CNS SF-539
HCT-116 = assay: NCI-60 cytotoxicity, HCT-116; type: cell-based; conditions: Homo sapiens, single determinations, Table 2, read-out: Cytotoxicity (GI50) Colon HCT-116
DU-145 = assay: NCI-60 cytotoxicity, DU-145; type: cell-based; conditions: Homo sapiens, single determinations, Table 2, read-out: Cytotoxicity (GI50) Prostate DU-145
[2] = read-out: Cytotoxicity (GI50) MGM
[3] = semiquantitative scale, in duplicate, Table 1, read-out: Enzyme Inhibitory Activity Tdp1
[4] = semiquantitative scale, in duplicate, Table 1, read-out: Enzyme Inhibitory Activity Tdp2
[5] = read-out: MGM (GI50 mean graph midpoint)
[6] = determined in duplicate, Table 2, read-out: Enzyme Inhibitory Activity Tdp1 (IC50)
[7] = read-out: Enzyme Inhibitory Activity Tdp2 (IC50)

| melting point | Enzyme Inhibitory Activity Top1 (Top1; Table 1) | Top1 inhibitory activity level (Top1) | IC50 (Tdp1; [3]) | IC50 (recombinant human TDP2; [4]) | Structure (SMILES) | GI50 (HOP-62) | GI50 (UACC-62) | GI50 (SN12C) | GI50 [1, 2] | GI50 (OVCAR-3) | GI50 (MCF-7) | GI50 (SF-539) | GI50 [1, 5] | cytotoxicity in the one-concentration preliminary testing ([1]; NCI-60 initial 1-concentration test) | GI50 (HCT-116) | Enzyme Inhibitory Activity Top1 (Top1; Table 2) | GI50 (DU-145) | IC50 (Tdp1; [6]) | IC50 (recombinant human TDP2; determined in duplicate, Table 2, read-out: Enzyme Inhibitory Activity Tdp2 (IC50)) | IC50 (recombinant human TDP2; [7]) |
| --- | --- | --- | --- | --- | --- | --- | --- | --- | --- | --- | --- | --- | --- | --- | --- | --- | --- | --- | --- | --- |
| 170 to 172 °C | ++ | ++ | 12000 to 37000 nM | 37000 to 111000 nM | COc1cnc2c(c1)C(=O)c1c-2n(CCCBr)c(=O)c2cc([N+](=O)[O-])ccc12 [Compound 7, 7-Aza-6-(3-bromopropyl)-5,6-dihydro-9-methoxy-3-nitro-5,11-dioxo-11H-indeno[1,2-c]isoquinoline] | 58 nM | 82 nM | 269 nM | 112 nM | 248 nM | 46 nM | 279 nM | – | – | – | – | – | – | – | – |
| 248 to 250 °C | ++ | ++ | 1000 to 12000 nM | 37000 to 111000 nM | COc1cnc2c(c1)C(=O)c1c-2n(CCCN2CCCC2)c(=O)c2cc([N+](=O)[O-])ccc12 [Compound 8, 7-Aza-5,6-dihydro-6-[3-(4-pyrrolidine-1-yl)propyl]-9-methoxy-3-nitro-5,11-dioxo-11H-indeno[1,2-c]isoquinoline] | < 10 nM | 15 nM | 36 nM | 45 nM | 59 nM | < 10 nM | 31 nM | – | – | – | – | – | – | – | – |
| 211 to 213 °C | ++ | ++ | 12000 to 37000 nM | 12000 to 37000 nM | COc1cnc2c(c1)C(=O)c1c-2n(CCCN2CCN(C)CC2)c(=O)c2cc([N+](=O)[O-])ccc12 [Compound 9, 7-Aza-5,6-dihydro-6-[3-(3H-methylpiperazine-1-yl)propyl]-9-methoxy-3-nitro-5,11-dioxo-11H-indeno[1,2-c]isoquinoline] | 81 nM | 183 nM | 214 nM | 562 nM | 171 nM | 16 nM | 191 nM | – | – | – | – | – | – | – | – |
| 134 to 135 °C | ++ | ++ | 12000 to 37000 nM | 37000 to 111000 nM | COc1cnc2c(c1)C(=O)c1c-2n(CCCN2CCNCC2)c(=O)c2cc([N+](=O)[O-])ccc12 [Compound 10, 7-Aza-5,6-dihydro-9-methoxy-3-nitro-5,11-dioxo-6-[3-(piperazine-1-yl)propyl]-11H-indeno[1,2-c]isoquinoline] | 65 nM | 175 nM | 230 nM | 316 nM | 1190 nM | 36 nM | 355 nM | – | – | – | – | – | – | – | – |
| 259 to 262 °C | +++ | +++ | 1000 to 12000 nM | 37000 to 111000 nM | CNCCCn1c2c(c3ccc([N+](=O)[O-])cc3c1=O)C(=O)c1cc(OC)cnc1-2 [Compound 11] | 30 nM | 20 nM | 46 nM | 741 nM | 174 nM | 1060 nM | 51 nM | 714 nM | – | – | – | – | – | – | – |
| 175 to 177 °C | ++++ | ++++ | 1000 to 12000 nM | 12000 to 37000 nM | COc1cnc2c(c1)C(=O)c1c-2n(CCCNC2=NCCS2)c(=O)c2cc([N+](=O)[O-])ccc12 [Compound 12, 7-Aza-5,6-dihydro-6-[3-((4,5-dihydrothiazol-2-yl)amino)propyl]-9-methoxy-3-nitro-5,11-dioxo-11H-indeno[1,2-c]isoquinoline] | 14 nM | < 10 nM | < 10 nM | 58 nM | 137 nM | < 10 nM | 36 nM | – | – | – | – | – | – | – | – |
| 214 to 216 °C | +++ | +++ | > 111000 nM | > 111000 nM | COc1cnc2c(c1)C(=O)c1c-2n(CCCN2CCN(CCO)CC2)c(=O)c2cc([N+](=O)[O-])ccc12 [Compound 16, 7-Aza-5,6-dihydro-6-[3-(4-(2-hydroxyethyl)piperazin-1-yl)propyl]-9-methoxy-3-nitro-5,11-dioxo-11H-indeno[1,2-c]isoquinoline] | 2760 nM | 1220 nM | – | 1660 nM | 1460 nM | 142 nM | 1700 nM | 1650 nM | – | – | – | – | – | – | – |
| 258 to 260 °C | ++ | ++ | 1000 to 12000 nM | 1000 to 12000 nM | COc1cnc2c(c1)C(=O)c1c-2n(CCCN2CCC(N)CC2)c(=O)c2cc([N+](=O)[O-])ccc12 [Compound 17, 6-[3-(4-Aminopiperidin-1-yl)propyl]-7-aza-5,6-dihydro-9-methoxy-3-nitro-5,11-dioxo-11H-indeno[1,2-c]isoquinoline] | – | – | – | – | – | – | – | – | low cytotoxicity | – | – | – | – | – | – |
| – | – | – | – | – | COc1cnc2c(c1)C(=O)c1c-2n(CCCN2CCC(O)CC2)c(=O)c2cc(F)ccc12 [Compound 17d, 3-Fluoro-6-(3-(4-hydroxypiperidin-1-yl)propyl)-9-methoxy-5H-pyrido[3′,2′:4,5]-cyclopenta[1,2-c]-isoquinoline-5,11(6H)-dione] | 142 nM | 240 nM | 189 nM | 199 nM | 254 nM | 31 nM | 295 nM | – | – | 89 nM | + | 174 nM | > 111000 nM | > 111000 nM | – |
| – | – | – | – | – | COc1cnc2c(c1)C(=O)c1c-2n(CCCN2CCNCC2)c(=O)c2cc(F)ccc12 [Compound 17e, 3-Fluoro-9-methoxy-6-(3-(piperazin-1-yl)propyl)-5H-pyrido[3′,2′:4,5]cyclopenta-[1,2-c]isoquinoline-5,11(6H)-dione] | 66 nM | 1260 nM | 80 nM | 218 nM | 335 nM | 34 nM | 532 nM | – | – | 91 nM | + | 62 nM | > 111000 nM | – | 107000 ± 5200 nM |
| – | – | – | – | – | CCNCCCn1c2c(c3ccc(F)cc3c1=O)C(=O)c1cc(OC)cnc1-2 [Compound 17h, 6-(3-(Ethylamino)propyl)-3-fluoro-9-methoxy-5H-pyrido[3′,2′:4,5]cyclopenta[1,2-c]isoquinoline-5,11(6H)-dione] | 149 nM | 341 nM | 151 nM | 229 nM | 282 nM | 42 nM | 320 nM | – | – | 136 nM | ++ | 215 nM | > 111000 nM | – | 104000 nM |
